Test system: 12-weeks-old ob/ob islets
Assay: Caspase 3/7 activity assay (apoptosis)
Type: cell-based, mouse
Conditions: β-cells from 12-weeks old ob/ob mice incubated overnight with the Ca2+-channel blocker
Experimental: ApoCIII expression was measured by real-time qPCR to determine the efficacy of apoCIII knockdown in cultured islets (n=4). […] (c) 25 mM KCl was used to induce depolarization and subsequent Ca^2+ influx (n=9-10). (d) Caspase 3/7 activity in ob/ob islets isolated from animals at 4-, 8- and 12-weeks of age (n=4). (e) Decrease in caspase activity in β-cells from 12-weeks old ob/ob mice either incubated overnight with the Ca^2+-channel blocker verapamil (left column) or exposed to apoCIII antisense (right column) (n=4). Data presented as mean±SEM. *P<0.05, ** P<0.01 by student's t-test or ANOVA (Tukey's post-hoc).
Caspase assay. Activity of capase 3/7 was determined using SensoLyte™ Homogeneous Rh110 Caspase 3/7 assay kit according to manufacturer's instructions, with modifications (AnaChem, USA). Briefly, islets or cells were harvested, lysed using lysis buffer (AnaChem, USA) and the protein quantified using BCA method. 10 μg of protein was loaded in a black 384-well plate and topped up with the appropriate amount of assay buffer (AnaChem, USA) containing Rh110 Caspase 3/7 Substrate. Plate was incubated in the dark for 1 hour at 24° C. Fluorescence intensity at Ex/Em=490/520nm was measured to determine the relative caspase activity.
It was determined if reducing endogenous apoCIII affects apoptosis in ob/ob islets. […]

COc1ccc(CCN(C)CCCC(C#N)(c2ccc(OC)c(OC)c2)C(C)C)cc1OC (stereo not shown) [verapamil]
reduction of caspase activity: 15%

From US20170037118A1, “Methods for treating and/or limiting development of diabetes” (Biocrine AB, priority 2013, published 2017)
